Measurements: ChEMBL document CHEMBL1201862, “PubChem BioAssay data set” (2004)
Activity calls are given as the source filed them.

Experiments:
cells [1] = assay type: functional, cell-based
cells [2] = assay type: functional, cell-based; remark: listed apart in the source
cells [3] = assay type: functional
[4] = viability of PTEN-deleted HCT116 cells – cell-based, HCT116 PTEN knockout, dose response (AID 1047); assay type: functional;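 note: HCT116 colon tumor cells with PTEN knocked out; cells exposed to compound for 60 hours before readout; potency for loss of cell viability measured by luminescence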
[5] = viability of HCT116 lacking mutant beta-catenin – cell-based, human colon tumor, dose response (AID 1045); assay type: functional;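 note: HCT116 colon tumor cells with beta catenin knocked out; cells exposed to compound for 60 hours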
[6] = microbe, parasite or virus in culture; assay type: functional; settings: Mycobacterium tuberculosis
Streptococcus = assay: GAS UMAA2166 growth inhibition – luminescence, BacTiterGlo, counter-screen for streptokinase expression inhibitor project, dose response (AID 1915); assay type: functional, organism-based;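 note: potency for reduction of bacterial viability or growth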
[7] = test system: Streptococcus sp. 'group A'; assay: Streptococcus pyogenes SK(-)GAS viability under kanamycin – luminescence, BacTiterGlo, confirmation, counter-screen for streptokinase expression inhibitor project, dose response (AID 1900); assay type: functional, organism-based
INS1 = assay: INS-1E survival protection against cytokine death – cell-based, luminescence, retest, dose response (AID 449756); assay type: functional; settings: Rattus norvegicus;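 note: cell death triggered by IL-1 beta plus TNF-alpha plus IFN-gamma mixture; protective hits raise ATP signal compared with cytokine alone wells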
Protein skinhead-1 = molecular target: T1, Protein skinhead-1 (Caenorhabditis elegans, UniProt P34707); assay type: functional
T1 sequence (P34707 whole entry): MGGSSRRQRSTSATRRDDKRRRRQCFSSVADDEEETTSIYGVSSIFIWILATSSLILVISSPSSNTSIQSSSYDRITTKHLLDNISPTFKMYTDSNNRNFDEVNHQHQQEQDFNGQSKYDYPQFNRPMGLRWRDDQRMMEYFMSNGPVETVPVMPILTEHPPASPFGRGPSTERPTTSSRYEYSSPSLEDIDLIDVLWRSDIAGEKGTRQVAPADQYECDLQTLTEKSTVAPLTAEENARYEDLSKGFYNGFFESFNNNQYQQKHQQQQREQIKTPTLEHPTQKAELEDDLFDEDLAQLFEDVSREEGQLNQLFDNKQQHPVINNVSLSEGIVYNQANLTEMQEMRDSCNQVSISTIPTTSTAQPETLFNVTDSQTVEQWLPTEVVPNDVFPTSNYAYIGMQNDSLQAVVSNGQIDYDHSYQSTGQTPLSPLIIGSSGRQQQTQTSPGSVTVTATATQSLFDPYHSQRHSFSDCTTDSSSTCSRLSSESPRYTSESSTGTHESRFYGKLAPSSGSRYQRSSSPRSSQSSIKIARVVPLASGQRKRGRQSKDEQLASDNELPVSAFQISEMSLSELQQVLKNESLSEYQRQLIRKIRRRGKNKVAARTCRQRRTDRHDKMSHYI

[8] = non-specific 3'UTR reporter inhibition in Clone20-Shn3RL – cell-based, Renilla luciferase, cherry-picked, counter-screen for Shn3 inhibitor project, dose response (AID 624133); assay type: functional
[9] = loss of viability in HepG2 cells – cell-based, CellTiter-Glo, cherry-picked, cytotoxicity control for Shn3 inhibitor project, dose response (AID 624134); assay type: functional
[10] = reduction of Shn3 3'UTR-driven luciferase in osteoblasts – cell-based, Clone20 osteoblasts, firefly luciferase, cherry-picked, dose response (AID 624132); assay type: functional;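 note: firefly luciferase luminescence from reporter carrying the Shn3 3'UTR in osteoblasts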
Streptokinase A = molecular target: T2, Streptokinase A (Streptococcus pyogenes serotype M1, UniProt P10520); assay: viability-normalized secreted streptokinase activity reduction – plasminogen activation absorbance, OD405, dose response (AID 1914); assay type: functional, Streptococcus pyogenes M1 GAS;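 note: secreted streptokinase activity via plasminogen activation per viability signal from cell pellet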
T2 sequence (P10520 whole entry): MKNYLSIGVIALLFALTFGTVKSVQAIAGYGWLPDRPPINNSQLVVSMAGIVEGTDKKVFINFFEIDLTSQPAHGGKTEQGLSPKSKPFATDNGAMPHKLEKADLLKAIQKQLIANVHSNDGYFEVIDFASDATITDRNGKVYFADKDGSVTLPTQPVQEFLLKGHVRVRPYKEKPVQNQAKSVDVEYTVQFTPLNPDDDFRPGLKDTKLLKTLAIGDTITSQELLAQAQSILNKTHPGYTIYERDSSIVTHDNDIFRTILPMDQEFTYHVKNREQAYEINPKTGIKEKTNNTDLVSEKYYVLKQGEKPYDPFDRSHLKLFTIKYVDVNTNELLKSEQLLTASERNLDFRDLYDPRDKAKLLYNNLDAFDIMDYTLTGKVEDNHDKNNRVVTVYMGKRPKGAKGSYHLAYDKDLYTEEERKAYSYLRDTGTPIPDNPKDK

[11] = HIV-1 AD8 envelope cell-cell fusion blockers – cherry-pick, dose response (AID 652062); assay type: functional, cell-based;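 note: luciferase signal from cell-cell fusion driven by HIV-1 clade B AD8 Env; potency is for inhibitors of fusion seen as a drop in luminescence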
[12] = blockers of HIV-1 envelope-mediated cell-cell fusion – cherry-pick, dose response (AID 652057); assay type: functional, cell-based
Paired box protein Pax-8 = Paired box protein Pax-8 (Homo sapiens, UniProt Q06710); assay: PAX8 transcriptional activity inhibition in RMG-I – RMG-I cells, luciferase, cherry-pick, dose response (AID 687027); assay type: functional, cell-based;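 note: luciferase reporter driven by Pax8 target thyroperoxidase promoter measured by SteadyGlo luminescence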
Paired box protein Pax-8, sequence (Q06710 whole entry): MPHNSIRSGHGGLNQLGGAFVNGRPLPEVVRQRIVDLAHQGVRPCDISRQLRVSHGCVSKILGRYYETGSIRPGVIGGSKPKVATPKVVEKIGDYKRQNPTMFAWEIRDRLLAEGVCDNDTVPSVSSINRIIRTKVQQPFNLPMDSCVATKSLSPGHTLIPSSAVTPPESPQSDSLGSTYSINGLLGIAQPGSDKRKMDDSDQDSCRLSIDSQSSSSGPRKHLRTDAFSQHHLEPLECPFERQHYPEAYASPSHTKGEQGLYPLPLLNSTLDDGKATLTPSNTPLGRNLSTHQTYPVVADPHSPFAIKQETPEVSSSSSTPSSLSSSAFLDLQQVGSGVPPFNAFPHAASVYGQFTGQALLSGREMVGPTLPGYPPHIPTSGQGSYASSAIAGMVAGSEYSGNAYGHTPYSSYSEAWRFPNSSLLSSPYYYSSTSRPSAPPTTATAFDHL

Cytochrome P450 3A4 = Cytochrome P450 3A4 (Homo sapiens, UniProt P08684); settings: Potency;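 note: confirmatory qHTS run detecting inhibitors and substrates of CYP3A4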
Cytochrome P450 3A4, sequence (P08684 whole entry): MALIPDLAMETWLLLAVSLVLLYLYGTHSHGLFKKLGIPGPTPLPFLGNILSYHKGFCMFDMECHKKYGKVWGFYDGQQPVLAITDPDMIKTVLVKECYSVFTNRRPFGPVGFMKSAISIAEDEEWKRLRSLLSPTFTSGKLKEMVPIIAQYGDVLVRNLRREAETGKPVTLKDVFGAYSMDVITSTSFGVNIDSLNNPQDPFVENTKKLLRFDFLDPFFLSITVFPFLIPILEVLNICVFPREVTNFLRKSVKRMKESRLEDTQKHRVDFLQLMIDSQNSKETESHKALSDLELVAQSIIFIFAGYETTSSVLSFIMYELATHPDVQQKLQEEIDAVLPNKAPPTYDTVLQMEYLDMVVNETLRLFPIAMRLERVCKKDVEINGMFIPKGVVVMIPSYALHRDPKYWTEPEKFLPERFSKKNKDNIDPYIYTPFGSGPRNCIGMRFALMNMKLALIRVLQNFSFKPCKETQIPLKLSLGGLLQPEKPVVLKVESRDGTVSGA

[13] = Luminescence Cell-Based Dose Retest to Confirm Inhibitors of Cancer Stem Cells. [Related pubchem assays (depositor defined):AID2717, AID2721]; assay type: functional; settings: Homo sapiens

In the case of `O=C(NCCCN1CCOCC1)c1cc(-c2ccccc2F)no1`, the EC50 (cells [1]) is reported as 113 µM (active) and the EC50 (cells [2]) is reported as > 350 µM (not active).

For `O=C(NNc1c(F)c(F)cc(F)c1F)c1cc2ccccc2oc1=O`, the IC50 (cells [3]) was 48 µM (active).

For `c1ccc(Nc2nc(N3CCCCC3)nc(N3CCNCC3)n2)cc1`, the EC50 [4] was 12.7 µM (active), the EC50 [5] was 14.3 µM (active) and the CC50 [6] was 23.5 µM (active).

With `Cc1cccc(/C=N/NC(=O)c2ccc3c(c2)OCCO3)c1O` the EC50 (cells [1]) was 66.1 µM (active), the EC50 (Streptococcus) was 6.82 µM (active) and the EC50 (cells [2]) was 6.39 µM (active). For the same compound, the EC50 [7] was 3.05 µM (active) and the AC50 (INS1) was 1.8 µM (active).

For `c1csc(-c2ccc3ccccc3n2)c1`, the IC50 (Protein skinhead-1) was 35.1 µM (active).

For `CC(C)(C)Sc1ccc2nc3c(n2c1)CCCC3`, the AC50 (INS1) was 14.7 µM (active) and the IC50 (cells [3]) was 29 µM (active).

With `CC(C)c1ccc(NC(=O)Nc2nc(C(N)COCc3ccccc3)cs2)cc1` (stereo unspecified) the AC50 [8] was 10.8 µM (active), the AC50 [9] was 18.1 µM (active) and the AC50 [10] was 5.99 µM (active).

For `COc1ccc(CC(N)c2csc(NC(=O)NC(c3ccccc3)c3ccccc3)n2)cc1` (stereo unspecified), the AC50 [8] was 19.3 µM (active), the AC50 [9] was 21.1 µM (active) and the AC50 [10] was 6.4 µM (active).

For `CN=C(S)N=Nc1c(O)[nH]c2ccc(C(C)C)cc12`, the EC50 [4] was 22.4 µM (active) and the EC50 [5] was 17.6 µM (active).

With `Cc1ccc(C)c(-c2nnc(NC(=O)COc3ccccc3)o2)c1` the EC50 (Streptococcus) was 23.1 µM (active), the EC50 (Streptokinase A) was > 150 µM (not active) and the EC50 [7] was 1.18 µM (active). The IC50 (cells [3]) was 5.98 µM (active).

In the case of `COc1ccc(COC(=O)CCNC(=O)c2ccc(Cl)cc2)cc1`, the IC50 (cells [3]) is reported as > 50 µM (active).

In the case of `O=C(O)C(Oc1ccc2ccccc2c1)c1ccccc1` (stereo unspecified), the IC50 (Protein skinhead-1) is reported as > 100 µM (inactive).

With `CC(C)n1c(NCCc2ccccc2)nc2c1c(=O)n(C)c(=O)n2C` the AC50 [11] was 17.9 µM (active) and the AC50 [12] was 21.2 µM (active).

For `COc1ccc(C(=O)Nc2cccc(OC(=O)c3ccc(C)c(C)c3)c2)cc1`, the IC50 (Protein skinhead-1) was > 100 µM (inactive).

With `CCOc1ccc(NC(=O)Nc2cc(OCC(F)(F)F)cc(OCC(F)(F)F)c2)cc1` the EC50 [4] was 16.9 µM (active), the AC50 (Paired box protein Pax-8) was 8.08 µM (active) and the EC50 [5] was 19.1 µM (active).

With `CC(=O)Oc1cc(OC(C)=O)c2c(=O)cc(-c3ccc(OC(C)=O)c(OC(C)=O)c3)oc2c1` the AC50 (Cytochrome P450 3A4) was 0.794 µM (inconclusive).

With `Cc1nn(Cc2ccccc2)c(C)c1C(=O)OCC(=O)c1cc(C)n(CC(F)(F)F)c1C` the AC50 [13] was 4.47 µM (active) and the CC50 [6] was > 40 µM (active).

For `CCCn1c(-c2ccc(F)cc2)nc2c(N3CCC(N(C)C)C3)nc(C)nc21` (stereo unspecified), the AC50 (Cytochrome P450 3A4) was 15.8 µM (inconclusive).

For `Cc1cc(Nc2ccccc2)cc(=O)n1C`, the EC50 (cells [1]) was > 350 µM (not active) and the EC50 (cells [2]) was > 350 µM (not active).

For `O=c1c(O)c(-c2cccs2)oc2ccccc12`, the EC50 (Streptococcus) was > 150 µM (not active), the EC50 (Streptokinase A) was > 150 µM (not active) and the EC50 [7] was 3.69 µM (active). The CC50 [6] was > 40 µM (active).

For `Clc1ccc(SCc2cc(-c3ccc(Cl)cc3)on2)cc1`, the IC50 (Protein skinhead-1) was > 100 µM (inactive).

With `Cc1nc(NC2CCCCC2)c2nc(-c3ccccc3)n(CCN(C)C)c2n1` the AC50 (Cytochrome P450 3A4) was 25.1 µM (inconclusive).
